ChEMBL document CHEMBL3885881, “DrugMatrix”

Organism: Rattus norvegicus
Format: toxicity, organism-based, Sprague-Dawley
Details: in vivo, ip, 24 h, route intraperitoneal, time 1 day, vehicle .1 % RSA/SALINE
[1] = 0 mg/kg, vehicle control, tissue Blood, dose level Control
[2] = 0 mg/kg, vehicle control, tissue Plasma, dose level Control
[3] = […], tissue Blood, dose 0.25 mg/Kg, dose level High
[4] = […], tissue Plasma, dose 0.25 mg/Kg, dose level High

Description: DrugMatrix - Regimen: Single

TNF-ALPHA, RAT
ABSOLUTE EOSINOPHIL [1]: 109.33 CELLS/uL
ABSOLUTE LYMPHOCYTE [1]: 13180.67 CELLS/uL
ABSOLUTE MONOCYTE [1]: 354 CELLS/uL
ABSOLUTE SEGMENTED NEUTROPHIL [1]: 1756 CELLS/uL
BASOPHIL [1]: 0%
EOSINOPHIL [1]: 0.67%
ERYTHROCYTE COUNT [1]: 5.38 x10E6/uL
HEMOGLOBIN [1]: 12.57 G/DL
LEUKOCYTE COUNT [1]: 15.4 x10E3/uL
LYMPHOCYTE [1]: 85%
MEAN CORPUSCULAR HEMOGLOBIN [1]: 23.37 pg
MEAN CORPUSCULAR HEMOGLOBIN CONCENTRATION [1]: 38.3 G/DL
NEUTROPHIL [1]: 12%
NUCLEATED RED BLOOD CELLS [1]: 0 /100WBC
PLATELET COUNT [1]: 832.33 x10E3/uL
ALANINE AMINOTRANSFERASE [2]: 37.33 u/L
ALBUMIN [2]: 4 G/DL
ALKALINE PHOSPHATASE [2]: 344.67 u/L
ASPARTATE AMINOTRANSFERASE [2]: 69.33 u/L
BLOOD UREA NITROGEN [2]: 13.67 mg/dL
CARBON DIOXIDE [2]: 28.33 mmol/L
CHLORIDE [2]: 99.67 MEQ/L
CHOLESTEROL [2]: 73.67 mg/dL
CREATINE PHOSPHOKINASE [2]: 270 u/L
CREATININE [2]: 0.19 mg/dL
GLUCOSE [2]: 176.33 mg/dL
LACTATE DEHYDROGENASE [2]: 160 u/L
PHOSPHORUS [2]: 13.47 mg/dL
POTASSIUM [2]: 6.77 MEQ/L
TOTAL BILIRUBIN [2]: 0.13 mg/dL
TOTAL PROTEIN [2]: 6.07 G/DL
URIC ACID [2]: 1.87 mg/dL
ABSOLUTE EOSINOPHIL [3]: 57.67 CELLS/uL
ABSOLUTE LYMPHOCYTE [3]: 13018 CELLS/uL
ABSOLUTE MONOCYTE [3]: 366 CELLS/uL
ABSOLUTE SEGMENTED NEUTROPHIL [3]: 1925 CELLS/uL
BASOPHIL [3]: 0%
EOSINOPHIL [3]: 0.33%
ERYTHROCYTE COUNT [3]: 5.31 x10E6/uL
HEMATOCRIT [3]: 32.37%
HEMOGLOBIN [3]: 12.23 G/DL
LEUKOCYTE COUNT [3]: 15.37 x10E3/uL
LYMPHOCYTE [3]: 85%
MEAN CORPUSCULAR HEMOGLOBIN [3]: 23.03 pg
MEAN CORPUSCULAR HEMOGLOBIN CONCENTRATION [3]: 37.8 G/DL
MEAN CORPUSCULAR VOLUME [3]: 60.97 fL
NEUTROPHIL [3]: 12.33%
NUCLEATED RED BLOOD CELLS [3]: 0.33 /100WBC
PLATELET COUNT [3]: 1023.67 x10E3/uL
ALANINE AMINOTRANSFERASE [4]: 40 u/L
ALKALINE PHOSPHATASE [4]: 339.67 u/L
ASPARTATE AMINOTRANSFERASE [4]: 85.67 u/L
BLOOD UREA NITROGEN [4]: 13.67 mg/dL
CHOLESTEROL [4]: 76.33 mg/dL
CREATINE PHOSPHOKINASE [4]: 860.67 u/L
CREATININE [4]: 0.21 mg/dL
GLUCOSE [4]: 158.33 mg/dL
LACTATE DEHYDROGENASE [4]: 124 u/L
PHOSPHORUS [4]: 11.93 mg/dL
POTASSIUM [4]: 6.39 MEQ/L
SODIUM [4]: 145.63 MEQ/L
TOTAL BILIRUBIN [4]: 0.2 mg/dL
TOTAL PROTEIN [4]: 6 G/DL
